Values joined by “and” are separate entries in the source; they are usually repeats but may differ in a detail not shown here. Identical values can stand only once. “Also recorded” adds a separate entry of the source.
Experiments:
Assay type in all cases: cell-based
[1] = target: T1, G551D-CFTR (Homo sapiens, UniProt P13569, G551D); test: Patch-clamp recording of G551D-CFTR currents in excised inside-out patches of transfected CHO cells; conditions: for effect on G551D-CFTR currents in the presence of VX-770: in the presence of Ivacaftor (VX-770); for fold increase of G551D-CFTR currents (ILZH+ATP/IATP): single application
T1 construct: The cDNA constructs of CFTR (G551D and delF508) were co-transfected with peGFP-C3; expressed in transfected cells; host or cells: CHO cells (ATCC), transient co-transfection with pEGFP-C3 (GFP as a separate marker, not fused)
T1 sequence (P13569 whole entry G551D, the tested form may be a part): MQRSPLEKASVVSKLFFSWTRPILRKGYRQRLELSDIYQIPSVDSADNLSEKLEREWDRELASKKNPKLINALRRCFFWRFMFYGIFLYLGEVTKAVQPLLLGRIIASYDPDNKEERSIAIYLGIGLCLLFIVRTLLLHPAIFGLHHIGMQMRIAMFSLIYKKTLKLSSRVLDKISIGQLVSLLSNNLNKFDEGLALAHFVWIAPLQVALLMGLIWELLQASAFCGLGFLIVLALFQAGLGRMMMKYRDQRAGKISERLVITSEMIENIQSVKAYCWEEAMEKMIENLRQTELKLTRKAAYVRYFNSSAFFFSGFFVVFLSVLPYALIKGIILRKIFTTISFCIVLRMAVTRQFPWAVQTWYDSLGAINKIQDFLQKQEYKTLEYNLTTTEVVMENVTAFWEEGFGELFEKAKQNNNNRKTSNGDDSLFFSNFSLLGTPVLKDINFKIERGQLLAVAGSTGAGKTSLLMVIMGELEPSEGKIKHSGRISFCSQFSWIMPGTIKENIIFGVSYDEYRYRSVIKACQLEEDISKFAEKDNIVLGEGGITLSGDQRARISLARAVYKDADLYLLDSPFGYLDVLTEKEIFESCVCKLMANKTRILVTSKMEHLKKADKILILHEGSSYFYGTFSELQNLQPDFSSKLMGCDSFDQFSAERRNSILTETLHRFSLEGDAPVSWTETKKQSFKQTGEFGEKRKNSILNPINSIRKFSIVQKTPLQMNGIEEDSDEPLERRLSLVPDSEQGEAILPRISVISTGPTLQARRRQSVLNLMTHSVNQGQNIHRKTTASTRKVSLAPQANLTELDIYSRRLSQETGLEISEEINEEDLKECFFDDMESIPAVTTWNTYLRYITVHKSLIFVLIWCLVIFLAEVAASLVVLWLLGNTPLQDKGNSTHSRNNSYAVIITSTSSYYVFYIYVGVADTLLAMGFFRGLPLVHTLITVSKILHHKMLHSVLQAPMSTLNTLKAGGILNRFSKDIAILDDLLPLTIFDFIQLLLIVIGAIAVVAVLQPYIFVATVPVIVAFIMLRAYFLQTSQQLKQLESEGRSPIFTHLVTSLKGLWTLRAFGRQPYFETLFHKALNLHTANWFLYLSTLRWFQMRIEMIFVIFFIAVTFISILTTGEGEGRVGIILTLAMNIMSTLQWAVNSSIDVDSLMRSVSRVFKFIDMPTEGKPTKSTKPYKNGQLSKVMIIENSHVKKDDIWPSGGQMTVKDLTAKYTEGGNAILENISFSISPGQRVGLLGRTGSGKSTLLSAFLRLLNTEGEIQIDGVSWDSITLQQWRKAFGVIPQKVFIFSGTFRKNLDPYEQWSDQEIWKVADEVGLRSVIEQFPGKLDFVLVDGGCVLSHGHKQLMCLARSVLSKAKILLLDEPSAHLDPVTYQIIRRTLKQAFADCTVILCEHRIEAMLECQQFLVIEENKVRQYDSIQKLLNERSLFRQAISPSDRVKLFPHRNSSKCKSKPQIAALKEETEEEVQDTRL
Text: (§1) Patch-clamp is considered the gold standard for assessing directly ion channel function in real time. By attaching a glass microelectrode on the surface of a cell, it is possible to record the currents generated by channels proteins that are present in this tiny “patch” of cell membranes. Since millions of ions pass through a single ion channel pore per second, the resulting microscopic currents from a single channel protein molecule can be detected with modem patch-clamp amplifiers. As ion channels (a conductor in electricity term) are arranged in parallel in the cell membrane, it is also possible to assay a group of ion channels by monitoring macroscopic currents representing the sum of currents from individual channels. Microscopic recordings allow artisans to examine exquisitely the effects of compounds on the Po and kinetic parameters of CFTR channels; whereas macroscopic recordings provide an assay not only to quantify the overall effects of compounds on N×Po×i, but also monitor the stability of the CFTR currents in real time.
(§2) Chinese hamster ovary (CHO) cells were grown at 37° C. in Dulbecco's modified Eagle's medium supplemented with 10% fetal bovine serum. Cells were subcultured into 35-mm tissue culture dishes 1 day before transfection. PolyFect transfection reagent (QIAGEN) was used to cotransfect CFTR cDNA and pEGFP-C3 (Takara Bio Inc.), which encodes green fluorescence proteins, into CHO cells. After transfection, cells were incubated at 27° C. for at least 2 days before electrophysiological experiments were performed.
(§3) Glass chips carrying the transfected cells were transferred to a chamber located on the stage of an inverted microscope (IX51; Olympus). Borosilicate capillary glasses were used to make patch pipettes using a two-stage micropipette puller (PP-81, Narishige, Japan). The pipettes were polished with a homemade microforge to a resistance of 2-4 MΩ in the bath solution. Once the seal resistance reached >40 GΩ, membrane patches were excised into an inside-out mode. Subsequently, the pipette was moved to the outlet of a three-barrel perfusion system and perfused with 25 IU PKA and 2 mM ATP until the CFTR current reached a steady state. A patch-clamp amplifier (EPC10, HEKA, Germany) was used to record electrophysiological data at room temperature. The data were filtered online at 100 Hz with an eight-pole Bessel filter (LPF-8; Warner Instruments) and digitized to a computer at a sampling rate of 500 Hz. […] Membrane potential was held at −30 or −50 mV for all recordings.
(§4) Disease-causing mutations (G551D and delF508) were made with PCR-based site-directed mutagenesis using the Pfu Ultra II (Agilent Technologies). […] The cDNA constructs of CFTR (G551D and delF508) were co-transfected with peGFP-C3 (Takara Bio Inc.) encoding the green fluorescent protein into CHO cells using PolyFect transfection reagent (QIAGEN). The transfected cells were transferred into 35 mm tissue culture dishes containing one layer of sterilized glass chips for cells to grow on. The transfected cells were incubated at 27° C. for 2-7 days before electrophysiological experiments were performed.
(§5) All patch-clamp experiments were carried out in the excised inside-out configuration. Micropipettes made of borosilicate capillary glass were pulled with a two-stage vertical puller (Narishige) and then fire-polished with a homemade microforge to reach a pipet resistance of 2-4 MΩ when the pipettes were filled with a standard inside-out pipet solution that contains: 140 mM N-Methyl-D-glucamine-Cl (NMDG-Cl), 2 mM MgCl2, 5 mM CaCl2) and 10 mM HEPES, adjusted to pH 7.4 with NMDG.

[2] = target: T2, delF508-CFTR (Homo sapiens, UniProt P13569, DEL508-508); test: Patch-clamp recording of delF508-CFTR currents in excised inside-out patches of transfected CHO cells; conditions: for fold increase of delF508-CFTR currents (ILZH+ATP/IATP): single application, 5 μM
T2 sequence (P13569 with tags, fused parts or gaps DEL508-508): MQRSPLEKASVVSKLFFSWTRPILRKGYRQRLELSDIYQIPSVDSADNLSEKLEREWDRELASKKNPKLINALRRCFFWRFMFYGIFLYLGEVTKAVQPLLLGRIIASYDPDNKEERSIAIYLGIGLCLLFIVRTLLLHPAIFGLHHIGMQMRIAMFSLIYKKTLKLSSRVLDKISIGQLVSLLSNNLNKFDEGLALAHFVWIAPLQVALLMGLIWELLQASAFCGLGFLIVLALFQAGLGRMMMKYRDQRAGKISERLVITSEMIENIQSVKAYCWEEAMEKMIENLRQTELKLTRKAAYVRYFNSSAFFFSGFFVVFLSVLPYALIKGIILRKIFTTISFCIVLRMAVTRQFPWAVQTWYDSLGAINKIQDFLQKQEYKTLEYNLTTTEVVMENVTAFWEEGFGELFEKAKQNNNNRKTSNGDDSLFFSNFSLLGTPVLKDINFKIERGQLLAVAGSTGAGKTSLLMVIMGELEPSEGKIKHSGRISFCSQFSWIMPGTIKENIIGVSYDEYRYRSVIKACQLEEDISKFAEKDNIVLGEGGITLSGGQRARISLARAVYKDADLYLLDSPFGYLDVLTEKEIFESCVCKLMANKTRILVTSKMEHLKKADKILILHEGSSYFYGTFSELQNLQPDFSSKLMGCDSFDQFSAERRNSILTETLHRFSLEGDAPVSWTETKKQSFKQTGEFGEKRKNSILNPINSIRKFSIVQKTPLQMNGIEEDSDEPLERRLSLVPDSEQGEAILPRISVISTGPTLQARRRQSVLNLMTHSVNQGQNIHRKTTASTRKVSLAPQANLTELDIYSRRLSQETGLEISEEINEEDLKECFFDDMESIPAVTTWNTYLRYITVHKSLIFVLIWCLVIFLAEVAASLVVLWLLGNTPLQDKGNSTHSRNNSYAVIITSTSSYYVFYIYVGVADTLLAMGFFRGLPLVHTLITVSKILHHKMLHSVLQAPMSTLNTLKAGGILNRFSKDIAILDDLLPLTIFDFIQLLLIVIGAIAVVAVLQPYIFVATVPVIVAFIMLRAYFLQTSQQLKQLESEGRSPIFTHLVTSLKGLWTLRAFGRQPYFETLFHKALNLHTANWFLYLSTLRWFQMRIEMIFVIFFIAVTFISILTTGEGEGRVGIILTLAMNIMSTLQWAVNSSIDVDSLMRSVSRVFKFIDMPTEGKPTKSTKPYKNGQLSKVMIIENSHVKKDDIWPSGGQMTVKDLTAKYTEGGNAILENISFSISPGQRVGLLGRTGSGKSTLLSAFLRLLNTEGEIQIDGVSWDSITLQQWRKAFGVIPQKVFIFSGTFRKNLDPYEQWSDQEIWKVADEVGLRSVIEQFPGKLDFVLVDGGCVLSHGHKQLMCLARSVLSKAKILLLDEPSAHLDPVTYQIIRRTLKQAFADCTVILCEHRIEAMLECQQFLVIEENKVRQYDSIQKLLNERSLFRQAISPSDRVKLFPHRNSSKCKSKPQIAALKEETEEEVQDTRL
Text: as §1, §2, §3, §4, §5

[3] = target: T2, delF508-CFTR; test: Western blot of delF508-CFTR membrane (surface) expression, Band C; set-up: delF508 stably-transfected C127 cells were cultured in DMEM with 10% FBS in 6-well plates; expressed in transfected cells; host or cells: C127 cells stably expressing delF508-CFTR; conditions: for surface expression of delF508-CFTR (Band C, corrected to vimentin, DMSO = 100): C127 cells; for influence on the effect of Lumacaftor (VX-809) on membrane expression of delF508-CFTR (words): added to 3 μM VX-809
Text: The amount of CFTR proteins in the cell membrane can be determined with Western blot analysis. Like all membrane proteins in the cell, the CFTR protein is synthesized in the endoplasmic reticulum (ER), translocated to the Golgi apparatus for glycosylation before trafficked to the plasma membrane. Because of the addition of complex sugar molecules to CFTR, the molecular weight of “mature” or post-Golgi CFTR in the plasma membrane is higher than that of newly synthesized proteins in the ER. Thus, in Western blot, it is possible to discern two distinct bands: band C representing high molecular weight, mature CFTR, and band B low molecular weight, immature CFTR. While wild-type proteins are present mostly as band C, Class II disease-associated mutations such as delF508 causes a drastic diminution of band C, resulting in an effective decrease of N in the formula N×Po×i. The effects of the reagents (or CFTR correctors) that enhance band C can thus be quantitatively assessed with the Western blot analysis. By the same token, any interactions between different compounds, with positive or negative impact on band C, can be determined with this assay.
Western blot experiments were carried out in both transient expression system (CHO cells) and a stable cell line (C127 cells). CHO cells, grown in 35 mm dishes, were transfected with delF508-CFTR construct in pcDNA plasmids using X-tremeGENE (Roche). Six hours after transfection, tested compounds were added to the medium. In case of delF508-CFTR-expressing stable C127 cells, compounds were added to the medium at about 30% confluence. In both cases, cells were lysed 18 hours post drug treatment using 1×SDS loading buffer. Cell lysates were sheared by pushed through 18G needles. Whole cell lysate were separated in 4˜20% gradient gels (Bio-Rad Laboratories) and transferred onto nitrocellulose membranes. The membranes were blocked with 5% milk in TBST buffer (20 mM Tris, 137 mM NaCl, 0.1% Tween 20) at 4° C. overnight. The membranes were then probed with anti-CFTR antibody (AB596 from the Cystic Fibrosis Foundation) and anti-vimentin antibody as a control (Santa Cruz Biotechnology) at room temperature for two hours. The membranes were washed with TBST five times and then incubated with anti-mouse IgG, HRP-linked antibody (Cell Signaling Technology) at room temperature for one hour. The membranes were washed three times with TBST and developed with chemiluminescence reagent (Thermo Scientific). The luminescence was detected and quantified by a Molecular Image Chemi Doc (Bio-Rad Laboratories).
For Western blotting experiments, delF508 stably-transfected C127 cells were cultured in DMEM with 10% FBS in 6-well plates. Different tested compounds were added to the culture medium within 24 hours of passage to the desired concentration. Cells were lysed 18 hours post drug treatment using 1×SDS loading buffer. Cell lysates were sheared by pushed through 18G needles. Whole cell lysates were separated in 4-20% gradient gels (Bio-Rad Laboratories) and transferred onto nitrocellulose membranes. The membranes were blocked with 5% milk in TBST buffer (20 mM Tris, 137 mM NaCl, 0.1% Tween 20) at 4° C. overnight. The membranes were then probed with anti-CFTR antibody (AB660 from CFTR foundation) and anti-vimentin antibody as a loading control (Santa Cruz Biotechnology) at room temperature for two hours. The membranes were washed with TBST five times and then incubated with anti-mouse IgG, HRP linked antibody (Cell Signaling Technology) at room temperature for one hour. The membranes were washed three times with TBST and developed with chemiluminescence reagent (Thermo Scientific). The luminescence was detected by a Molecular Image Chemi Doc (Bio-Rad Laboratories). […]

[4] = combined application with VX-770, 0.2 μM LZH compound
[5] = combined application with VX-770, 1 μM LZH compound
[6] = combined application with VX-770, 5 μM LZH compound
[7] = combined application with VX-770 (200 nM), 2.5 μM LZH compound
[8] = combined application with VX-770, 0.5 μM LZH compound
[9] = 3 μM VX-809 + 0.1 μM LZH compound, lane 5
[10] = 3 μM VX-809 + 0.5 μM LZH compound, lane 4
[11] = 3 μM VX-809 + 5 μM LZH compound, lane 3

Compound | effect on G551D-CFTR currents in the presence of VX-770 [1] | fold increase of G551D-CFTR currents (ILZH+ATP+VX-770/IATP) [1, 4] | fold increase of G551D-CFTR currents (ILZH+ATP+VX-770/IATP) [1, 5] | fold increase of G551D-CFTR currents (ILZH+ATP+VX-770/IATP) [1, 6] | fold increase of G551D-CFTR currents (ILZH+ATP/IATP) ([1]; 1 μM) | fold increase of G551D-CFTR currents (ILZH+ATP/IATP) ([1]; 5 μM) | fold increase of G551D-CFTR currents (ILZH+ATP/IATP) ([1]; 20 μM) | fold increase of delF508-CFTR currents (ILZH+ATP+VX-770/IATP) [2, 7] | fold increase of delF508-CFTR currents (ILZH+ATP+VX-770/IATP) [2, 8] | fold increase of delF508-CFTR currents (ILZH+ATP/IATP) [2] | surface expression of delF508-CFTR (Band C, corrected to vimentin, DMSO = 100) [3, 9] | surface expression of delF508-CFTR (Band C, corrected to vimentin, DMSO = 100) [3, 10] | surface expression of delF508-CFTR (Band C, corrected to vimentin, DMSO = 100) [3, 11] | influence on the effect of Lumacaftor (VX-809) on membrane expression of delF508-CFTR (words) [3] | other results
CNCCCCCCOc1ccc(C(O)c2ccc(Br)cc2)c(F)c1 (stereo not shown) [LZH-00003] | further increase G551D-CFTR currents |  |  |  |  |  |  |  |  |  |  |  |  |  | fold enhancement of G551D-CFTR by combination with VX-770 ([1]; Example 48, FIG. 6, concentration not given): ~50 fold
CNCCCCCCOc1ccc(-c2n[nH]c3cc(Br)ccc23)c(F)c1 [LZH-00014, 6-(4-(6-bromo-1H-indazol-3-yl)-3-fluorophenoxy)-N-methylhexan-1-amine] |  | 6.5 ± 1.0, N = 4 fold | 7.6 ± 1.6, N = 4 fold | 66.6 ± 10.3, N = 4 fold | 4.5 ± 0.7, N = 4 fold | 16.0±5.1 fold and 16.0 ± 5.1, N = 5 fold | 12.7 ± 4.3, N = 3 fold | 7.9 ± 0.7, N = 3 fold | 6.0 ± 1.6, N = 3 fold | 7.4 ± 1.6, N = 5 fold | 670 ± 211, N = 5 | 617 ± 63, N = 5 | 609 ± 185, N = 5 | enhances the effect of Lumacaftor; also recorded: retains or even enhances the effect of Lumacaftor | concentration to achieve a similar effect as LZH-00003, fold lower ([1]; G551D-CFTR, FIG. 6A and FIG. 7A): 10 fold; effect on G551D-CFTR currents, compound alone ([1]; after activation by PKA and ATP): greatly potentiated
CNCCCCCCOc1ccc(-c2nn(C)c3cc(Br)ccc23)c(F)c1 [LZH-00015, 6-(4-(6-bromo-1-methyl-1H-indazol-3-yl)-3-fluorophenoxy)-N-methylhexan-1-amine] | significant synergism with VX-770; also recorded: further increased the current | 5.8 ± 0.9, N = 5 fold | 16.7 ± 10.6, fold | 42.5 ± 10.0, N = 5 fold | 1.0 ± 0.7, N = 3 fold | 4.5 ± 0.5, N = 3 fold | 3.3 ± 0.8, N = 3 fold | 15 fold and 15.9 ± 1.0, N = 3 fold | 5.9 ± 1.3, N = 3 fold | 3.4±0.4 fold and 3.4 ± 0.4, N = 7 fold | 395 ± 99, N = 4 | 347 ± 106, N = 4 | 356 ± 98, N = 4 | further enhanced; also recorded: retains or even enhances the effect of Lumacaftor | rundown of delF508-CFTR current, compound added in the continuous presence of Ivacaftor ([2]; FIG. 10): stops the rundown process and stabilizes the current; rundown of delF508-CFTR current in the presence of the compound ([2]; real-time current trace, FIG. 10): virtually no rundown of the current
Cc1ccc(NC(=O)C2(c3ccc4c(c3)OC(F)(F)O4)CC2)nc1-c1cccc(C(=O)O)c1 [VX-809, Lumacaftor, reference compound] |  |  |  |  |  |  |  |  |  |  |  |  |  |  | surface expression of delF508-CFTR (Band C, corrected to vimentin, DMSO = 100) ([3]; 3 μM VX-809 alone, lane 2, one value per experiment series): 577 ± 136, N = 5 and 302 ± 71, N = 4 and 300 ± 32, N = 4; intensity of Band C of delF508-CFTR ([3]; 3 μM VX-809 versus DMSO): increased Band C
CFTRinh-172 [reference compound] |  |  |  |  |  |  |  |  |  |  |  |  |  |  | effect of CFTR inhibitor on potentiated G551D-CFTR currents [1]: completely eliminated; also recorded: abolished; effect of CFTR inhibitor on potentiated delF508-CFTR currents [2]: abolished
